What was measured:
[1] = test system: 14C-acetate incorporation into the steroids which can be precipitated with digitonin (cholesterol biosynthesis); assay: Inhibition of 14C-acetate incorporation into the steroids which can be precipitated with digitonin; assay type: cell-based; conditions: for IC50: 14C-acetate incorporation
From the text: I. Measuring the Inhibition of ^14C-acetate incorporation into the steroids which can be precipitated with digitonin: The inhibitory effect was investigated using the method described in J. Lipid. Res. 37, 148-157 [1996] at test concentrations of 10^−8 and 10^−9 mol/l.

[2] = molecular target: T1, 2,3-epoxysqualene-lanosterol-cyclase (Rattus norvegicus, UniProt P48450); assay: In-vivo activity in the rat after oral administration: 2,3-epoxysqualene level in the liver
T1 construct: Measuring the in-vivo Activity in the Rat after Oral Administration; from tissue; host or cells: living rat; 2,3-epoxysqualene measured in the liver
T1 sequence (P48450 1-733): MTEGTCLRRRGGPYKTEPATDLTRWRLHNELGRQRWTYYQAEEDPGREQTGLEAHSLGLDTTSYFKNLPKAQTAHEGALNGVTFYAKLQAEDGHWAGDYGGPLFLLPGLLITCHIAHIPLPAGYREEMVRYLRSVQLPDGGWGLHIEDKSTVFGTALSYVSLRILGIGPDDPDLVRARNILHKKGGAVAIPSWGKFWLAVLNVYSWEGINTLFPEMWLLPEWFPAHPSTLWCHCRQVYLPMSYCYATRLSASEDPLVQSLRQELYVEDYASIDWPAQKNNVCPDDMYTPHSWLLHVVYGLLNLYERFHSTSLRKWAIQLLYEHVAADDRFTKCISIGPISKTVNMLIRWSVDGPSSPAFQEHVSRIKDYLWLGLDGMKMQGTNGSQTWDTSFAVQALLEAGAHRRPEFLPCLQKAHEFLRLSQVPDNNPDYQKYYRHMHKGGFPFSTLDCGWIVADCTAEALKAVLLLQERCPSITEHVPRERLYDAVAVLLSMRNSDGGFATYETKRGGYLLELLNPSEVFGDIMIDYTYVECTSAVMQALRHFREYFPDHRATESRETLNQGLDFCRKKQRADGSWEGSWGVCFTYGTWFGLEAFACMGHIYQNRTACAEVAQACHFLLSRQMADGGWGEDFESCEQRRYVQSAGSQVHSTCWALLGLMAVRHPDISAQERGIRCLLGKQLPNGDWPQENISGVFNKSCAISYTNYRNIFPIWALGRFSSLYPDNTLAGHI
Method: II. Measuring the in-vivo Activity in the Rat after Oral Administration
Inhibiting the enzyme 2,3-epoxysqualene-lanosterol-cyclase causes an increase in the 2,3-epoxisqualene levels in the liver and plasma. The quantity of 2,3-epoxysqualene formed therefore serves as a direct measurement of the potency on the animal as a whole. The amounts were determined using the method described in J. Lipid. Res. 38, 564-575, [1997] at t=3 or 8 hours after administration of the substance in concentrations of c=0.01, 0.03, 0.1, 0.3 and 1.0 mg/kg. Table 3 which follows gives the results obtained for the abovementioned substances A, B, C, E, G, H, O and R by way of example.
In the control animals there were no measurable 2,3-epoxisqualene levels under these conditions.

[3] = test system: Cand. albicans ATCC 10231; assay: Fungistatic activity, series dilution test; assay type: cell-based; conditions: Sabouraud broth, 2 to 4 days at 26° C.
Method: (§1) V. Determining the Fungistatic Activity
(§2) The fungistatic activity was determined by the series dilution test (microtitre system). Sabouraud broth was used as the nutrient medium. The inoculum amounted to about 10^4 to 10^5 CFU/ml (CFU=colony-forming units); the incubation period was 2 to 4 days at 26° C.
(§3) The lowest concentration which allows no visible growth (minimum inhibitory concentration MIC) was determined.
(§4) The abovementioned compounds B, E, G, I, K, L, N, Q and R were tested. The MIC is given in μg/ml.

[4] = test system: Sacch. carisbergensis ATCC 9080; assay: Fungistatic activity, series dilution test; assay type: cell-based; conditions: Sabouraud broth, 2 to 4 days at 26° C.
Method: as §1, §2, §3, §4

Asp. niger ATCC 16404 = assay: Fungistatic activity, series dilution test; assay type: cell-based; conditions: Sabouraud broth, 2 to 4 days at 26° C.
Method: as §1, §2, §3, §4

Pen. notatum CBS 19746 = assay: Fungistatic activity, series dilution test; assay type: cell-based; conditions: Sabouraud broth, 2 to 4 days at 26° C.
Method: as §1, §2, §3, §4

[5] = test system: Trich. mentagrophytes ATCC 9129; assay: Fungistatic activity, series dilution test; assay type: cell-based; conditions: Sabouraud broth, 2 to 4 days at 26° C.
Method: as §1, §2, §3, §4

Rhod. rubra 49 = assay: Fungistatic activity, series dilution test; assay type: cell-based; conditions: Sabouraud broth, 2 to 4 days at 26° C.
Method: as §1, §2, §3, §4

[6] = Lipid reduction in the normolipaemic golden hamster; assay type: in vivo; conditions: dose 5.87 mg/kg/day, compared with control group
Method: III. Lipid Reduction in the Normolipaemic Golden Hamster This was determined using the method described in J. Lipid. Res. 38, 564-575, (1997). At the end of the experiment the total cholesterol, β-lipoprotein-cholesterol and HDL-cholesterol were determined and compared with the values of a control group which were fed without any test substance. The lipid-lowering activity of the abovementioned compounds E, G and I was tested.

[7] = 0.01 mg/kg oral, 3 h after administration
[8] = 0.01 mg/kg oral, 8 h after administration
[9] = 0.03 mg/kg oral, 3 h after administration
[10] = 0.03 mg/kg oral, 8 h after administration
[11] = 0.1 mg/kg oral, 3 h after administration
[12] = 0.1 mg/kg oral, 8 h after administration
[13] = 1.0 mg/kg oral, 3 h after administration
[14] = 1.0 mg/kg oral, 8 h after administration
[15] = 0.3 mg/kg oral, 3 h after administration
[16] = 0.3 mg/kg oral, 8 h after administration

Compound: CN(C)Cc1ccc([C@H]2CC[C@H](N(C)C(=S)Sc3ccc(Cl)cc3)CC2)cc1 [A, trans-S-(4-chlorophenyl)-N-4-[4-(dimethylaminomethyl)-phenyl]cyclohexyl-N-methyldithiocarbamate]
- percentage inhibition of 14C-acetate incorporation ([1]; test concentration 10^−8 mol/l): −85%
- percentage inhibition of 14C-acetate incorporation ([1]; test concentration 10^−9 mol/l): −39%
- 2,3-epoxysqualene concentration in the liver (rat) [2, 7]: 0.0 µg/g
- 2,3-epoxysqualene concentration in the liver (rat) [2, 8]: 14.6 µg/g
- 2,3-epoxysqualene concentration in the liver (rat) [2, 9]: 11.8 µg/g
- 2,3-epoxysqualene concentration in the liver (rat) [2, 10]: 66.0 µg/g
- 2,3-epoxysqualene concentration in the liver (rat) [2, 11]: 62.6 µg/g
- 2,3-epoxysqualene concentration in the liver (rat) [2, 12]: 312.5 µg/g
- 2,3-epoxysqualene concentration in the liver (rat) [2, 13]: 136.5 µg/g
- 2,3-epoxysqualene concentration in the liver (rat) [2, 14]: 291.9 µg/g

Compound: CN(C)Cc1ccc([C@H]2CC[C@H](N(C)C(=S)SCc3ccc(F)cc3)CC2)cc1.Cl [C, trans-S-(4-fluorobenzyl)-N-4-[4-(dimethylaminomethyl)-phenyl]cyclohexyl-N-methyldithiocarbamate-hydrochloride]
- percentage inhibition of 14C-acetate incorporation ([1]; test concentration 10^−8 mol/l): −87%
- percentage inhibition of 14C-acetate incorporation ([1]; test concentration 10^−9 mol/l): −52%
- 2,3-epoxysqualene concentration in the liver (rat) [2, 7]: 0.0 µg/g
- 2,3-epoxysqualene concentration in the liver (rat) [2, 8]: 84.8 µg/g
- 2,3-epoxysqualene concentration in the liver (rat) [2, 9]: 33.1 µg/g
- 2,3-epoxysqualene concentration in the liver (rat) [2, 10]: 57.8 µg/g
- 2,3-epoxysqualene concentration in the liver (rat) [2, 11]: 47.0 µg/g
- 2,3-epoxysqualene concentration in the liver (rat) [2, 12]: 133.1 µg/g
- 2,3-epoxysqualene concentration in the liver (rat) [2, 15]: 77.8 µg/g
- 2,3-epoxysqualene concentration in the liver (rat) [2, 16]: 196.5 µg/g
- 2,3-epoxysqualene concentration in the liver (rat) [2, 13]: 68.1 µg/g
- 2,3-epoxysqualene concentration in the liver (rat) [2, 14]: 243.9 µg/g

Compound: CN(C)Cc1ccc([C@H]2CC[C@H](N(C)C(=S)SCc3ccc(Cl)cc3)CC2)cc1.Cl [D, trans-S-(4-chlorobenzyl)-N-4-[4-(dimethylaminomethyl)-phenyl]cyclohexyl-N-methyldithiocarbamate-hydrochloride]
- percentage inhibition of 14C-acetate incorporation ([1]; test concentration 10^−8 mol/l): −85%
- percentage inhibition of 14C-acetate incorporation ([1]; test concentration 10^−9 mol/l): −51%

Compound: CN(C)Cc1ccc([C@H]2CC[C@@H](N(C)C(=S)SCc3ccccc3)CC2)cc1.Cl [F, cis-S-benzyl-N-4-[4-(dimethylaminomethyl)phenyl]-cyclohexyl-N-methyldithiocarbamate-hydrochloride]
- percentage inhibition of 14C-acetate incorporation ([1]; test concentration 10^−8 mol/l): −83%
- percentage inhibition of 14C-acetate incorporation ([1]; test concentration 10^−9 mol/l): −40%

Compound: CN(C)Cc1ccc([C@H]2CC[C@H](N(C)C(=O)Sc3ccc(Cl)cc3)CC2)cc1.Cl [H, trans-S-(4-chlorophenyl)-N-4-[4-(dimethylaminomethyl)-phenyl]cyclohexyl-N-methylthiocarbamate-hydrochloride]
- IC50 [1]: 0.5 nM
- percentage inhibition of 14C-acetate incorporation ([1]; test concentration 10^−8 mol/l): −87%
- percentage inhibition of 14C-acetate incorporation ([1]; test concentration 10^−9 mol/l): −65%
- 2,3-epoxysqualene concentration in the liver (rat) [2, 7]: 2.9 µg/g
- 2,3-epoxysqualene concentration in the liver (rat) [2, 8]: 31.3 µg/g
- 2,3-epoxysqualene concentration in the liver (rat) [2, 9]: 25.7 µg/g
- 2,3-epoxysqualene concentration in the liver (rat) [2, 10]: 25.3 µg/g
- 2,3-epoxysqualene concentration in the liver (rat) [2, 11]: 117.7 µg/g
- 2,3-epoxysqualene concentration in the liver (rat) [2, 12]: 202.3 µg/g
- 2,3-epoxysqualene concentration in the liver (rat) [2, 15]: 70.3 µg/g
- 2,3-epoxysqualene concentration in the liver (rat) [2, 16]: 112.6 µg/g

Compound: CN(C(=O)Oc1ccc(Cl)cc1)[C@H]1CC[C@H](c2ccc(CN3CCCC3)cc2)CC1.Cl [K, trans-O-(4-chlorophenyl)-N-methyl-N-4-[4-(pyrrolidinomethyl)phenyl]cyclohexylcarbamate-hydrochloride]
- MIC Cand. [3]: 64 µg/mL
- MIC Sacc. [4]: 128 µg/mL
- MIC Asp. (Asp. niger ATCC 16404): 16 µg/mL
- MIC Pen. (Pen. notatum CBS 19746): 8 µg/mL
- MIC Trich. [5]: 2 µg/mL
- MIC Rhod. (Rhod. rubra 49): 32 µg/mL
- percentage inhibition of 14C-acetate incorporation ([1]; test concentration 10^−8 mol/l): −81%
- percentage inhibition of 14C-acetate incorporation ([1]; test concentration 10^−9 mol/l): −53%

Compound: CCN(CC)Cc1ccc([C@H]2CC[C@H](N(C)C(=O)Oc3ccc(Cl)cc3)CC2)cc1.Cl [L, trans-O-(4-chlorophenyl)-N-4-[4-(diethylaminomethyl)-phenyl]cyclohexyl-N-methylcarbamate-hydrochloride]
- MIC Cand. [3]: 32 µg/mL
- MIC Sacc. [4]: 128 µg/mL
- MIC Asp. (Asp. niger ATCC 16404): 32 µg/mL
- MIC Pen. (Pen. notatum CBS 19746): 64 µg/mL
- MIC Trich. [5]: 1 µg/mL
- MIC Rhod. (Rhod. rubra 49): 8 µg/mL
- percentage inhibition of 14C-acetate incorporation ([1]; test concentration 10^−8 mol/l): −83%
- percentage inhibition of 14C-acetate incorporation ([1]; test concentration 10^−9 mol/l): −53%

Compound: C=CCN(C)Cc1ccc([C@H]2CC[C@H](N(C)C(=O)Oc3ccc(Cl)cc3)CC2)cc1 [M, trans-O-(4-chlorophenyl)-N-methyl-N-4-[4-(N-methyl-N-allylaminomethyl)phenyl]cyclohexylcarbamate]
- percentage inhibition of 14C-acetate incorporation ([1]; test concentration 10^−8 mol/l): −93%
- percentage inhibition of 14C-acetate incorporation ([1]; test concentration 10^−9 mol/l): −74%

Compound: Cc1ccc(OC(=O)N(C)[C@H]2CC[C@H](c3ccc(CN(C)C)cc3)CC2)cc1.Cl [O, trans-N-4-[4-(dimethylaminomethyl)phenyl]cyclohexyl-N-methyl-O-(4-methylphenyl)carbamate-hydrochloride]
- IC50 [1]: 0.8 nM
- percentage inhibition of 14C-acetate incorporation ([1]; test concentration 10^−8 mol/l): −83%
- percentage inhibition of 14C-acetate incorporation ([1]; test concentration 10^−9 mol/l): −57%
- HDL-cholesterol [6]: −12.7%
- Total cholesterol [6]: −17.3%
- β-Lipoprotein-cholesterol [6]: −22.5%
- 2,3-epoxysqualene concentration in the liver (rat) [2, 11]: 53.4 µg/g
- 2,3-epoxysqualene concentration in the liver (rat) [2, 12]: 94.3 µg/g
- 2,3-epoxysqualene concentration in the liver (rat) [2, 15]: 72.6 µg/g
- 2,3-epoxysqualene concentration in the liver (rat) [2, 16]: 113.2 µg/g
- 2,3-epoxysqualene concentration in the liver (rat) [2, 13]: 117.9 µg/g
- 2,3-epoxysqualene concentration in the liver (rat) [2, 14]: 224.8 µg/g

Compound: Cc1ccc(OC(=S)N(C)[C@H]2CC[C@H](c3ccc(CN(C)C)cc3)CC2)cc1.Cl [P, trans-N-4-[4-(dimethylaminomethyl)phenyl]cyclohexyl-N-methyl-O-(4-methylphenyl)thiocarbamate-hydrochloride]
- percentage inhibition of 14C-acetate incorporation ([1]; test concentration 10^−8 mol/l): −83%
- percentage inhibition of 14C-acetate incorporation ([1]; test concentration 10^−9 mol/l): −60%

Compound: CN(C)Cc1ccc([C@H]2CC[C@H](N(C)C(=O)c3ccc(Cl)cc3)CC2)cc1 [V, reference compound]
- IC50 [1]: 3.8 nM
- percentage inhibition of 14C-acetate incorporation ([1]; test concentration 10^−8 mol/l): −59%
- percentage inhibition of 14C-acetate incorporation ([1]; test concentration 10^−9 mol/l): −23%

Compound: Cc1ccc(CC(=O)O[C@H]2CC[C@H](c3ccc(CN(C)C)cc3)CC2)cc1 [W, trans-O-(p-tolylacetyl)-4-(4-dimethylaminomethylphenyl)-cyclohexanol, reference compound]
- IC50 [1]: 9.6 nM
- inhibition at 0.01 µM ([1]; test concentration 10^−8 mol/l, read-out: percentage inhibition of 14C-acetate incorporation): 72%
- inhibition at 0.001 µM ([1]; test concentration 10^−9 mol/l, read-out: percentage inhibition of 14C-acetate incorporation): 21%

From patent publication US20020019536A1, “NEW URETHANES, THIO AND DITHIO ANALOGUES AND THEIR USE AS INHIBITORS OF CHOLESTEROL BIOSYNTHESIS” (priority 1997, published 2002)
